Test results: patent US20220395496A1 (Hoffmann-La Roche Inc., priority 2019, published 2022)

How the values were obtained:
[1] = target: T1, human TLR7 (Homo sapiens, UniProt Q9NYK1); experiment: HEK293-Blue-hTLR-7 cells assay (SEAP reporter, R848 stimulation); type: cell-based; conditions: HEK293-Blue-hTLR7 cells, R848, 20 hrs; lowest tested concentration 0.0032
T1 sequence (Q9NYK1 27-1049): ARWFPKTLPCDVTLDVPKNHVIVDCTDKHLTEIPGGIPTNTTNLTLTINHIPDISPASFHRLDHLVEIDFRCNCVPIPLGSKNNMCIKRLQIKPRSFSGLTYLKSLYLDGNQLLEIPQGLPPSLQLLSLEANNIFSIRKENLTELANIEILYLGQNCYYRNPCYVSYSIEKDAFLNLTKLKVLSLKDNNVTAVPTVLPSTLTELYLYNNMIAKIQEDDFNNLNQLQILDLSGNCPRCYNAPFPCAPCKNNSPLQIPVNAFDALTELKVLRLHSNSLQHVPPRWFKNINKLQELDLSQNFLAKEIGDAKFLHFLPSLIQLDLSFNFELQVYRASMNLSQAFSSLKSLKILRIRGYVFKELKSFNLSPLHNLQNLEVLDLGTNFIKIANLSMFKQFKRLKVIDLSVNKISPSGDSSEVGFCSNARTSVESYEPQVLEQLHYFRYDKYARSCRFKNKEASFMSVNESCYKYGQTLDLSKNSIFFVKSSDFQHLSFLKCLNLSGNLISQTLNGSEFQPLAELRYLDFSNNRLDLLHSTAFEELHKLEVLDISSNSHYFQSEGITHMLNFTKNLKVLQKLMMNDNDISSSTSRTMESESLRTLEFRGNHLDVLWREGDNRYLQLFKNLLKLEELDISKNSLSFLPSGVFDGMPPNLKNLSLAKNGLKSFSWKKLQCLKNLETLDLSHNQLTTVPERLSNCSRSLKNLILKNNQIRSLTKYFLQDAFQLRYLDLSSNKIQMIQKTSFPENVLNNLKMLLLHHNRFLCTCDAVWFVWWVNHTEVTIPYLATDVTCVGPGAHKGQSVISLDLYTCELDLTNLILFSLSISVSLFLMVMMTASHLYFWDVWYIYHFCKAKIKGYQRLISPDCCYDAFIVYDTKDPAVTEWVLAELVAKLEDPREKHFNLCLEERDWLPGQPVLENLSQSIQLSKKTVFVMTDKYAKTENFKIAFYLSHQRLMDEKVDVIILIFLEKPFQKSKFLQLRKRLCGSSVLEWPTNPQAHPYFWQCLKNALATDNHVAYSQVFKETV
Procedure: The following tests were carried out in order to determine the activity of the compounds of this invention in HEK293-Blue-hTLR-7/8/9 cells assay.
HEK293-Blue-hTLR-7 Cells Assay:
A stable HEK293-Blue-hTLR-7 cell line was purchased from InvivoGen (Cat. #: hkb-htlr7, San Diego, Calif., USA). These cells were originally designed for studying the stimulation of human TLR7 by monitoring the activation of NF-κB. A SEAP (secreted embryonic alkaline phosphatase) reporter gene was placed under the control of the IFN-β minimal promoter fused to five NF-κB and AP-1-binding sites. The SEAP was induced by activating NF-κB and AP-1 via stimulating HEK-Blue hTLR7 cells with TLR7 ligands. Therefore the reporter expression was declined by TLR7 antagonist under the stimulation of a ligand, such as R848 (Resiquimod), for incubation of 20 hrs. The cell culture supernatant SEAP reporter activity was determined using QUANTI-Blue™ kit (Cat. #: rep-qb1, Invivogen, San Diego, Calif., USA) at a wavelength of 640 nm, a detection medium that turns purple or blue in the presence of alkaline phosphatase.
HEK293-Blue-hTLR7 cells were incubated at a density of 250,000˜450,000 cells/mL in a volume of 170 μL in a 96-well plate in Dulbecco's Modified Eagle's medium (DMEM) containing 4.5 g/L glucose, 50 U/mL penicillin, […], […], 2 mM L-glutamine, 10% (v/v) heat-inactivated fetal bovine serum with addition of 20 μL test compound in a serial dilution in the presence of final DMSO at 1% and 10 μL of 20 uM R848 in above DMEM, perform incubation under 37° C. in a CO2 incubator for 20 hrs. Then 20 μL of the supernatant from each well was incubated with 180 μL Quanti-blue substrate solution at 37° C. for 2 hrs and the absorbance was read at 620-655 nm using a spectrophotometer. The signalling pathway that TLR7 activation leads to downstream NF-κB activation has been widely accepted, and therefore similar reporter assay was modified for evaluating TLR7 antagonist.

[2] = Human microsome stability assay; type: in vitro ADME; conditions: human liver microsomes, 1 μM test compound, 0.5 mg/mL protein, 37° C., pH 7.4
Procedure: Human Microsome Stability Assay
The human microsomal stability assay is used for early assessment of metabolic stability of a test compound in human liver microsomes. Compounds with high metabolic stability are considered to be desirable as they can provide favorable in vivo PK profiles and thus sufficient exposure in the targeted tissues or organs
Human liver microsomes (Cat. NO.: 452117, Corning, USA; Cat. NO.: H2610, Xenotech, USA) were preincubated with test compound for 10 minutes at 37° C. in 100 mM potassium phosphate buffer, pH 7.4. The reactions were initiated by adding NADPH regenerating system. The final incubation mixtures contained 1 μM test compound, 0.5 mg/mL liver microsomal protein, 1 mM MgCl2, 1 mM NADP, 1 unit/mL isocitric dehydrogenase and 6 mM isocitric acid in 100 mM potassium phosphate buffer, pH 7.4. After incubation times of 0, 3, 6, 9, 15 and 30 minutes at 37° C., 300 μL of cold acetonitrile (including internal standard) was added to 100 μL incubation mixture to terminate the reaction. Following precipitation and centrifugation, the amount of compound remaining in the samples were determined by LC-MS/MS. Controls of no NADPH regenerating system at zero and 30 minutes were also prepared and analyzed.

In the case of `C[C@H]1C[C@@H](NCc2ccc(N3CCNCC3)cc2)CN(c2ccc(C#N)c3ncccc23)C1` [Example 1, 5-[(3S,5R)-3-methyl-5-[(4-piperazin-1-ylphenyl)methylamino]1-piperidyl]quinoline-8-carbonitrile], the IC50 [1] is reported as 0.016 µM and the HLM [2] is reported as 7.3 mL/min/kg.

In the case of `C[C@H]1C[C@@H](NCc2ccc(C3CCNCC3)cc2)CN(c2ccc(C#N)c3ncccc23)C1` [Example 2, 5-[(3S,5R)-3-methyl-5-[[4-(4-piperidyl)phenyl]methylamino]-1-piperidyl]quinoline-8-carbonitrile], the IC50 [1] is reported as 0.032 µM and the HLM [2] is reported as 7.0 mL/min/kg.

Work on `C[C@H]1C[C@@H](NCc2ccc(N3CCNCC3)nc2)CN(c2ccc(C#N)c3ncccc23)C1` [Example 10] yielded an IC50 [1] of 0.007 µM and an HLM [2] of 7.4 mL/min/kg.

`C[C@H]1C[C@@H](N2Cc3ccc(N4CCNCC4)cc3C2)CN(c2ccc(C#N)c3ncccc23)C1` [Example 12, 5-[(3S,5R)-3-methyl-5-(5-piperazin-1-ylisoindolin-2-yl)-1-piperidyl]quinoline-8-carbonitrile] gave an IC50 [1] of 0.007 µM and an HLM [2] of 6.2 mL/min/kg.

Work on `C[C@H]1C[C@@H](NCc2cnc(N3CCNCC3)nc2)CN(c2ccc(C#N)c3ncccc23)C1` [Example 17, 5-[(3S,5R)-3-methyl-5-[(2-piperazin-1-ylpyrimidin-5-yl)methylamino]-1-piperidyl]quinoline-8-carbonitrile] yielded an IC50 [1] of 0.007 µM and an HLM [2] of 6.8 mL/min/kg.

`C[C@H]1C[C@@H](NCc2ccc(N3CCNCC3)cc2)CN(c2ccc(C#N)n3nccc23)C1` [Example 21, 4-[(3S,5R)-3-methyl-5-[(4-piperazin-1-ylphenyl)methylamino]-1-piperidyl]pyrazolo[1,5-a]pyridine-7-carbonitrile] gave an IC50 [1] of 0.063 µM and an HLM [2] of 6.2 mL/min/kg.

`C[C@H]1C[C@@H](N2Cc3cc(N4CCNCC4)cnc3C2)CN(c2ccc(C#N)c3ncccc23)C1` [Example 23, 5-[(3S,5R)-3-methyl-5-(3-piperazin-1-yl-5,7-dihydropyrrolo[3,4-b]pyridin-6-yl)-1-piperidyl]quinoline-8-carbonitrile] gave an IC50 [1] of 0.023 µM and an HLM [2] of 7.3 mL/min/kg.

With `C[C@H]1C[C@@H](NCc2ccccc2)CN(c2ccc(C#N)c3ncccc23)C1` [Example R1, reference compound] the IC50 [1] was 0.089 µM and the HLM [2] was 17.3 mL/min/kg.

For `C[C@H]1C[C@@H](N2Cc3ccccc3C2)CN(c2ccc(C#N)c3ncccc23)C1` [Example R2, reference compound], the IC50 [1] was 0.048 µM and the HLM [2] was 18.4 mL/min/kg.
